Laboratory results: PubChem BioAssay (NCI)
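Values below derive from 48-hour exposures of cells grown in 96-well plates, with endpoints linearly interpolated between the two concentrations bracketing the appropriate inhibition level. At the TGI there is no net growth.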

Key:
Assay in all cases: growth of human tumour cells (NCI), 48 h
NCI-H460 lung = test system: NCI-H460 lung
SF-268 CNS = test system: SF-268 CNS
SNB-75 CNS = test system: SNB-75 CNS
UO-31 renal = test system: UO-31 renal
NCI-H226 lung = test system: NCI-H226 lung
HCT-116 colon = test system: HCT-116 colon
KM12 colon = test system: KM12 colon
EKVX NSCLC = test system: EKVX NSCLC
SK-MEL-2 melanoma = test system: SK-MEL-2 melanoma
DLD-1 colon = test system: DLD-1 colon
UACC-257 melanoma = test system: UACC-257 melanoma
M19-MEL melanoma = test system: M19-MEL melanoma
SK-OV-3 ovarian = test system: SK-OV-3 ovarian
SF-539 CNS = test system: SF-539 CNS
M14 melanoma = test system: M14 melanoma
HOP-18 NSCLC = test system: HOP-18 NSCLC
DMS 273 small cell lung = test system: DMS 273 small cell lung
K-562 leukemia = test system: K-562 leukemia
CAKI-1 renal = test system: CAKI-1 renal
A498 renal = test system: A498 renal
HL-60(TB) leukemia = test system: HL-60(TB) leukemia
SW-620 colon = test system: SW-620 colon
RXF 393 renal = test system: RXF 393 renal
ACHN renal = test system: ACHN renal
CCRF-CEM leukemia = test system: CCRF-CEM leukemia
A549 NSCLC = test system: A549 NSCLC
U251 CNS = test system: U251 CNS
TK-10 renal = test system: TK-10 renal
HCT-15 colon = test system: HCT-15 colon
IGROV1 ovarian = test system: IGROV1 ovarian
OVCAR-8 ovarian = test system: OVCAR-8 ovarian
SNB-78 CNS = test system: SNB-78 CNS
SK-MEL-5 melanoma = test system: SK-MEL-5 melanoma
786-0 renal = test system: 786-0 renal
HOP-62 NSCLC = test system: HOP-62 NSCLC
SK-MEL-28 melanoma = test system: SK-MEL-28 melanoma
HT29 colon = test system: HT29 colon
OVCAR-4 ovarian = test system: OVCAR-4 ovarian
COLO 205 colon = test system: COLO 205 colon
OVCAR-5 ovarian = test system: OVCAR-5 ovarian
UACC-62 melanoma = test system: UACC-62 melanoma
RXF-631 renal = test system: RXF-631 renal
HCC-2998 colon = test system: HCC-2998 colon
SN12C renal = test system: SN12C renal
SNB-19 CNS = test system: SNB-19 CNS
SF-295 CNS = test system: SF-295 CNS
NCI-H23 lung = test system: NCI-H23 lung
DMS 114 small cell lung = test system: DMS 114 small cell lung
LOX IMVI melanoma = test system: LOX IMVI melanoma
HOP-92 NSCLC = test system: HOP-92 NSCLC
OVCAR-3 ovarian = test system: OVCAR-3 ovarian
MALME-3M melanoma = test system: MALME-3M melanoma
MOLT-4 leukemia = test system: MOLT-4 leukemia
RPMI-8226 leukemia = test system: RPMI-8226 leukemia
LXFL 529 NSCLC = test system: LXFL 529 NSCLC
NCI-H522 lung = test system: NCI-H522 lung

O=C(NCCNCCO)c1cccc2ccc(-c3ccccc3)nc12
TGI (NCI-H460 lung): 11.6 µM | TGI (SF-268 CNS): 19 µM | TGI (SNB-75 CNS): 22.3 µM | TGI (UO-31 renal): 12 µM | TGI (NCI-H226 lung): 17.4 µM | TGI (HCT-116 colon): 11.8 µM | TGI (KM12 colon): 18.3 µM | TGI (EKVX NSCLC): 19.7 µM | TGI (SK-MEL-2 melanoma): 20.2 µM | TGI (DLD-1 colon): 19.5 µM | TGI (UACC-257 melanoma): 14.2 µM | TGI (M19-MEL melanoma): 15.7 µM | TGI (SK-OV-3 ovarian): 27.7 µM | TGI (SF-539 CNS): 13 µM | TGI (M14 melanoma): 17.8 µM | TGI (HOP-18 NSCLC): 45.8 µM | TGI (DMS 273 small cell lung): 14.1 µM | TGI (K-562 leukemia): > 100 µM | TGI (CAKI-1 renal): 14.1 µM | TGI (A498 renal): 8.41 µM | TGI (HL-60(TB) leukemia): > 100 µM | TGI (SW-620 colon): 14.2 µM | TGI (RXF 393 renal): 15.5 µM | TGI (ACHN renal): 5.65 µM | TGI (CCRF-CEM leukemia): 27.1 µM | TGI (A549 NSCLC): 12.8 µM | TGI (U251 CNS): 17.4 µM | TGI (TK-10 renal): 6.72 µM | TGI (HCT-15 colon): 14.8 µM | TGI (IGROV1 ovarian): 13.2 µM | TGI (OVCAR-8 ovarian): 19.5 µM | TGI (SNB-78 CNS): 29.1 µM | TGI (SK-MEL-5 melanoma): 12.5 µM | TGI (786-0 renal): 19.6 µM | TGI (HOP-62 NSCLC): 22.8 µM | TGI (SK-MEL-28 melanoma): 22.1 µM | TGI (HT29 colon): 14.6 µM | TGI (OVCAR-4 ovarian): 18.5 µM | TGI (COLO 205 colon): 13.6 µM | TGI (OVCAR-5 ovarian): 18.2 µM | TGI (UACC-62 melanoma): 13.8 µM | TGI (RXF-631 renal): 12.1 µM | TGI (HCC-2998 colon): 17.1 µM | TGI (SN12C renal): 17.6 µM | TGI (SNB-19 CNS): 28.7 µM | TGI (SF-295 CNS): 18.9 µM | TGI (NCI-H23 lung): 15.3 µM | TGI (DMS 114 small cell lung): 19.8 µM | TGI (LOX IMVI melanoma): 10.5 µM | TGI (HOP-92 NSCLC): 11.7 µM | TGI (OVCAR-3 ovarian): 25.1 µM

Cc1ccccc1-n1c(N)c(-c2nc3ccccc3[nH]2)sc1=S
TGI (SF-268 CNS): 69.6 µM | TGI (SNB-75 CNS): 56.6 µM | TGI (UO-31 renal): 45.6 µM | TGI (MALME-3M melanoma): 45.1 µM | TGI (NCI-H226 lung): 74.4 µM | TGI (KM12 colon): 39.9 µM | TGI (EKVX NSCLC): 88.5 µM | TGI (SK-MEL-2 melanoma): 48.3 µM | TGI (DLD-1 colon): 64.6 µM | TGI (UACC-257 melanoma): 36.6 µM | TGI (M19-MEL melanoma): 50.5 µM | TGI (SK-OV-3 ovarian): 72.6 µM | TGI (SF-539 CNS): 41.1 µM | TGI (M14 melanoma): 36.5 µM | TGI (HOP-18 NSCLC): 72.8 µM | TGI (DMS 273 small cell lung): 35 µM | TGI (K-562 leukemia): > 100 µM | TGI (MOLT-4 leukemia): 70.6 µM | TGI (CAKI-1 renal): 71.4 µM | TGI (A498 renal): > 100 µM | TGI (HL-60(TB) leukemia): 66.6 µM | TGI (SW-620 colon): 72.5 µM | TGI (RXF 393 renal): 62.4 µM | TGI (ACHN renal): > 100 µM | TGI (CCRF-CEM leukemia): > 100 µM | TGI (A549 NSCLC): 71.3 µM | TGI (TK-10 renal): 85.8 µM | TGI (HCT-15 colon): 71.7 µM | TGI (IGROV1 ovarian): 57 µM | TGI (OVCAR-8 ovarian): 84.2 µM | TGI (SNB-78 CNS): 74.8 µM | TGI (SK-MEL-5 melanoma): 36.6 µM | TGI (786-0 renal): 81.3 µM | TGI (HOP-62 NSCLC): 46 µM | TGI (SK-MEL-28 melanoma): 39.3 µM | TGI (HT29 colon): 36.9 µM | TGI (OVCAR-4 ovarian): 78.3 µM | TGI (COLO 205 colon): 49 µM | TGI (RPMI-8226 leukemia): 62.2 µM | TGI (OVCAR-5 ovarian): > 100 µM | TGI (UACC-62 melanoma): 37.1 µM | TGI (RXF-631 renal): 49.1 µM | TGI (LXFL 529 NSCLC): 50.4 µM | TGI (HCC-2998 colon): 34.8 µM | TGI (SN12C renal): 56.9 µM | TGI (SNB-19 CNS): 66.4 µM | TGI (SF-295 CNS): 42.4 µM | TGI (NCI-H23 lung): 45.4 µM | TGI (NCI-H522 lung): 50.3 µM | TGI (DMS 114 small cell lung): 59 µM | TGI (LOX IMVI melanoma): 52.6 µM | TGI (OVCAR-3 ovarian): 41.1 µM
